Experimental data as given in publication PMC10332459, “N-terminal lid swapping contributes to the substrate specificity and activity of thermophilic lipase TrLipE” (Frontiers in Microbiology, 2023).
Values belong to the compound of their own block, whether it stands above or below them.

Assays:
Test in all cases: p-nitrophenol release at […] nm, non-linear fit
Assay type in all cases: biochemical, Thermomicrobium roseum
TrL17 = test system: T1, TrL17; details: 60 °C; Tris-HCl 50 mM pH 8.0; gum arabic and sodium deoxycholate emulsion; read-out: 4-Nitrophenyl benzoate
T1 construct: gene EstN7; N-terminal lid Lys2-Glu45 of 7B4Q fused to TrLipE Val54-Ala323; His-tagged, E. coli BL21, 35-37 kDa

TrL2 = test system: T2, TrL2; details: 60 °C; Tris-HCl 50 mM pH 8.0; gum arabic and sodium deoxycholate emulsion; read-out: 4-Nitrophenyl benzoate
T2 construct: gene EstE5; N-terminal lid Ala2-Asp42 of 3H18 fused to TrLipE Val54-Ala323; His-tagged, E. coli BL21, 35-37 kDa

TrL18 = test system: T3, TrL18; details: 60 °C; Tris-HCl 50 mM pH 8.0; gum arabic and sodium deoxycholate emulsion; read-out: 4-Nitrophenyl benzoate
T3 construct: N-terminal lid Ala2-Glu45 of 7UAY fused to TrLipE Val54-Ala323; His-tagged, E. coli BL21, 35-37 kDa

TrL3 = test system: T4, TrL3; details: 60 °C; Tris-HCl 50 mM pH 8.0; gum arabic and sodium deoxycholate emulsion; read-out: 4-Nitrophenyl benzoate
T4 construct: gene EstE7; N-terminal lid Asp13-Gly57 of 3K6K fused to TrLipE Val54-Ala323; His-tagged, E. coli BL21, 35-37 kDa

TrL16 = test system: T5, TrL16; details: 60 °C; Tris-HCl 50 mM pH 8.0; gum arabic and sodium deoxycholate emulsion; read-out: 4-Nitrophenyl decanoate
T5 construct: gene PMGL3; N-terminal lid Asn2-Cys49 of 7B1X fused to TrLipE Val54-Ala323; His-tagged, E. coli BL21, 35-37 kDa

TrL8 = test system: T6, TrL8; details: 60 °C; Tris-HCl 50 mM pH 8.0; gum arabic and sodium deoxycholate emulsion; read-out: 4-Nitrophenyl decanoate
T6 construct: gene ThaEst2349; N-terminal lid Pro2-Asp49 of 4V2I fused to TrLipE Val54-Ala323; His-tagged, E. coli BL21, 35-37 kDa

TrL4 = test system: T7, TrL4; details: 60 °C; Tris-HCl 50 mM pH 8.0; gum arabic and sodium deoxycholate emulsion; read-out: 4-Nitrophenyl palmitate
T7 construct: gene LipW; N-terminal lid Val2-Gly53 of 3QH4 fused to TrLipE Val54-Ala323; His-tagged, E. coli BL21, 35-37 kDa

TrL11 = test system: T8, TrL11; details: 60 °C; Tris-HCl 50 mM pH 8.0; gum arabic and sodium deoxycholate emulsion; read-out: 4-Nitrophenyl palmitate
T8 construct: gene E53; N-terminal lid Lys4-Gly69 of 5HC0 fused to TrLipE Val54-Ala323; His-tagged, E. coli BL21, 35-37 kDa

TrL1 = test system: T9, TrL1; details: 60 °C; Tris-HCl 50 mM pH 8.0; gum arabic and sodium deoxycholate emulsion; read-out: 4-Nitrophenyl palmitate
T9 construct: gene EST2; N-terminal lid Leu3-Pro44 of 1EVQ fused to TrLipE Val54-Ala323; His-tagged, E. coli BL21, 35-37 kDa

TrL12 = test system: T10, TrL12; details: 60 °C; Tris-HCl 50 mM pH 8.0; gum arabic and sodium deoxycholate emulsion; read-out: 4-Nitrophenyl palmitate
T10 construct: gene TmelEST2; N-terminal lid Gln34-Glu74 of 5MIF fused to TrLipE Val54-Ala323; His-tagged, E. coli BL21, 35-37 kDa

TrL9 = test system: T11, TrL9; details: 60 °C; Tris-HCl 50 mM pH 8.0; gum arabic and sodium deoxycholate emulsion; read-out: 4-Nitrophenyl palmitate
T11 construct: gene Est8; N-terminal lid Ala2-Gly49 of 4YPV fused to TrLipE Val54-Ala323; His-tagged, E. coli BL21, 35-37 kDa

TrL5 = test system: T12, TrL5; details: 60 °C; Tris-HCl 50 mM pH 8.0; gum arabic and sodium deoxycholate emulsion; read-out: 4-Nitrophenyl laurate
T12 construct: N-terminal lid Asn23-Pro66 of 4C89 fused to TrLipE Val54-Ala323; His-tagged, E. coli BL21, 35-37 kDa

TrL7 = test system: T13, TrL7; details: 60 °C; Tris-HCl 50 mM pH 8.0; gum arabic and sodium deoxycholate emulsion; read-out: 4-Nitrophenyl laurate
T13 construct: gene SshEstI; N-terminal lid Pro2-Lys45 of 4P9N fused to TrLipE Val54-Ala323; His-tagged, E. coli BL21, 35-37 kDa

Km (TrL17): 60.2 µM
Km (TrL2): 50 µM
Km (TrL18): 44.9 µM
Km (TrL3): 37 µM
Structure (SMILES): O=C(Oc1ccc([N+](=O)[O-])cc1)c1ccccc1 [4-Nitrophenyl benzoate]

Km (TrL16): 44.7 µM
Km (TrL8): 21.8 µM
Structure (SMILES): CCCCCCCCCC(=O)Oc1ccc([N+](=O)[O-])cc1 [4-Nitrophenyl decanoate]

Structure (SMILES): CCCCCCCCCCCCCCCC(=O)Oc1ccc([N+](=O)[O-])cc1 [4-Nitrophenyl palmitate]
Km (TrL4): 7.46 µM
Km (TrL11): 77.4 µM
Km (TrL1): 55.3 µM
Km (TrL12): 13.7 µM
Km (TrL9): 23.2 µM

Km (TrL5): 21.1 µM
Km (TrL7): 12.8 µM
Structure (SMILES): CCCCCCCCCCCC(=O)Oc1ccc([N+](=O)[O-])cc1 [4-Nitrophenyl laurate]
